From patent US12005127B2, “DNA-PK inhibitors” (VERTEX PHARMACEUTICALS INCORPORATED, priority 2018, dated 2024)

Tests used:
DNA-PK [1] = target: T1, DNA-PK (Homo sapiens, UniProt P78527); test: DNA-PK cellular assay (pDNA-PK Ser2056 sandwich ELISA, NCS-induced DSBs); format: cell-based; design: endogenous in cells; host or cells: A549 (human NSCLC); conditions: pDNA-PK (Ser2056) in A549 cells, NCS 50 ng/ml, 15 minutes
Description: DNA-PK is recruited to and activated by double-strand breaks (DSB) in DNA and plays a critical role in the non-homologous end-joining (NHEJ) repair mechanism. Upon activation, DNA-PK undergoes rapid autophosphorylation at Ser2056. The measure of pDNA-PK (Ser2056) in response to DNA DSBs provides a cellular signaling assay to evaluate potential DNA-PK kinase inhibitors.
Neocarzinostatin (NCS) was used as a radiomimetic to induce DNA DSBs. The sandwich ELISA used the Meso Scale Discovery electrochemiluminescence technology platform which typically provides greater sensitivity than traditional ELISA formats.
A549 (human NSCLC) cells are plated at 25,000 cells/well in 100 uL of DMEM (Invitrogen cat #11995-040) supplemented with 1% Pen/Strep (Invitrogen cat #15070-063) and 10% FBS (Hyclone cat #SH30071.03HI) on black clear bottom 96 well plates (Costar #3904) and allowed to adhere overnight at 37° C. in 5% CO2. The following day, the compounds and NCS solutions are prepared by adding 100 ul of DMEM growth media per well in a Corning polypropylene V-bottom deep well plate (cat #3357). The HP Compound Dilution D300 instrument was used to add compounds to the appropriate wells using the setting logarithmic and 16-point titration singlet.
The DMEM NCS solution was prepared by adding NCS to DMEM media at 200 ng/ml (final assay concentration, 50 ng/ml). 100 ul of the DMEM/NCS solution is added to the wells with the compounds. 100 ul of this solution is then immediately added to the A549 cells. The cells are then incubated for 15 minutes at 37° C.
The complete lysis buffer is prepared by adding 1% Phosphatase inhibitor (Sigma cat #P2850) and 1% Protease Inhibitor (Sigma cat #P8340) to the Lanthascreen cellular assay lysis buffer (Invitrogen cat #PV5598). The media from the plate was removed by flicking and patting dry. 60 uL/well of the complete lysis buffer is added to each well. These plates are then incubated for at least 5 minutes in the lysis buffer at room temperature to ensure complete lysis. At this point the lysates can be transferred to prepared ELISA plates.
The prepared ELISA plates were prepared blocking the Mesoscale Goat-Anti-Mouse (GAM) plates with 150 uL/well of 3% Blocker A (Mesoscale cat #R93-BA) for one hour at room temperature with shaking. The capture antibody is prepared by diluting the mouse monoclonal anti-total DNA-PK (AbCAM cat #ab1832) to 3 ug/mL in 1% Blocker A. The blocked plates rinsed once with 200 uL D-PBS. The capture antibody (25 ul/well) was added to each well and allowed to incubate for an hour at room temperature while shaking. This was rinsed once with 200 ul D-PBS before adding 25 uL of the prepared cell lysate from the cell plates to the Mesoscale GAM ELISA plate. The lysate is then incubated on the plates for one hour at room temperature with shaking. The detection antibody (Epitomics rabbit anti-pS2056-DNA-PK) is prepared at a 1/1000 dilution (to a final concentration of 450 ng/mL) in 1% Blocker A. The GAM plates are washed once with 200 uL of D-PBS and then 25 uL/well of the detection antibody is added to the plate. This incubates for one hour at room temperature with shaking. The Sulfotag is prepared by adding Sulfo-Tag Goat-Anti-Rabbit antibody (Mesoscale cat #R32AB-1) at a 1/500 dilution (1 ug/mL) to 1% Blocker A. The GAM plates are washed with 200 uL of D-PBS and then 25 uL of the Sulfotag preparation is added to each well. Once the plates have been incubated with the final solution, the Sulfotag, for 1 hour, they are washed once with 200 uL of D-PBS. The 1× Read Buffer (Mesoscale cat #R32-TC) is made by diluting the 4× buffer in ddH20. 150 uL of 1× buffer is added to each well of the GAM plate and then the plate is read on the Sector Imager 2400. The readout (electrochemiluminescence) was plotted against the concentration of each compound and the IC50s were generated using Prism software (GraphPad Prism version 6.0e for Macintosh). […]

DNA-PK [2] = target: T1, DNA-PK; test: DNA-PK inhibition assay (radiometric 33P-ATP kinase assay); format: biochemical; conditions: competitive tight-binding fit
Description: Compounds were screened for their ability to inhibit DNA-PK kinase using a standard radiometric assay. Briefly, in this kinase assay the transfer of the terminal ^33P-phosphate in ^33P-ATP to a peptide substrate is interrogated. The assay was carried out in 384-well plates to a final volume of 50 μL per well containing approximately 6 nM DNA-PK, 50 mM HEPES (pH 7.5), 10 mM MgCl2, 25 mM NaCl, 0.01% BSA, 1 mM DTT, 10 μg/mL sheared double-stranded DNA (obtained from Sigma), 0.8 mg/mL DNA-PK peptide (Glu-Pro-Pro-Leu-Ser-Gln-Glu-Ala-Phe-Ala-Asp-Leu-Trp-Lys-Lys-Lys, obtained from American Peptide), and 100 μM ATP. Accordingly, compounds of the invention were dissolved in DMSO to make 10 mM initial stock solutions. Serial dilutions in DMSO were then made to obtain the final solutions for the assay. A 0.75 μL aliquot of DMSO or inhibitor in DMSO was added to each well, followed by the addition of ATP substrate solution containing ^33P-ATP (obtained from Perkin Elmer). The reaction was started by the addition of DNA-PK, peptide and ds-DNA. After 45 min, the reaction was quenched with 25 μL of 5% phosphoric acid. The reaction mixture was transferred to MultiScreen HTS 384-well PH plates (obtained from Millipore), allowed to bind for one hour, and washed three times with 1% phosphoric acid. Following the addition of 50 μL of Ultima Gold™ high efficiency scintillant (obtained from Perkin Elmer), the samples were counted in a Packard TopCount NXT Microplate Scintillation and Luminescence Counter (Packard BioScience). The Ki values were calculated using Microsoft Excel Solver macros to fit the data to the kinetic model for competitive tight-binding inhibition. In Tables 1 and 2 below, Ki of less than 0.001 micromolar for the inhibition of DNA-PK is indicated as “A”; Ki of equal to or greater than 0.001 micromolar and less than 0.01 micromolar for the inhibition of DNA-PK as “B”; Ki of equal to or greater than 0.01 micromolar and less than 0.1 micromolar for the inhibition of DNA-PK as “C”; Ki of equal to or greater than 0.1 micromolar and less than 1 micromolar for the inhibition of DNA-PK for “D”; and Ki of equal to or greater than 1 micromolar as “E.”

| IC50 (DNA-PK [1]; Table 1) [nM] | Ki (DNA-PK [2]; Table 1, 100 μM ATP) [µM] | IC50 (DNA-PK [1]; Table 2) [nM] | Ki (DNA-PK [2]; Table 2, 100 μM ATP) [µM] | SMILES |
| --- | --- | --- | --- | --- |
| < 100 | < 0.001 | – | – | CNC(=O)c1ccnc(N[C@H]2CC[C@@H](Oc3cc(N4CCOCC4)cc4ncnc(C)c34)CC2)n1 [Compound 13, N-methyl-2-[[4-(4-methyl-7-morpholino-quinazolin-5-yl)oxycyclohexyl]amino]pyrimidine-4-carboxamide] |
| < 100 | < 0.001 | – | – | CN1CCN(c2cc(N[C@H]3CC[C@@H](Oc4cc(N5CCOCC5)cc5ncncc45)CC3)ncn2)CC1 [Compound 14, 6-(4-methylpiperazin-1-yl)-N-[4-(7-morpholinoquinazolin-5-yl)oxycyclohexyl]pyrimidin-4-amine] |
| < 100 | < 0.001 | – | – | O=C(N[C@H]1CC[C@@H](Oc2cc(N3CCOCC3)cc3ncncc23)CC1)c1ccncn1 [Compound 15, N-[4-(7-morpholinoquinazolin-5-yl)oxycyclohexyl]pyrimidine-4-carboxamide] |
| < 100 | < 0.001 | – | – | O=C(N[C@H]1CC[C@@H](Oc2cc(N3CCOCC3)cc3ncncc23)CC1)C1CC1 [Compound 16, N-[4-(7-morpholinoquinazolin-5-yl)oxycyclohexyl]cyclopropanecarboxamide] |
| < 100 | < 0.001 | – | – | c1ncc2c(O[C@H]3CC[C@@H](Nc4ncnc5ccoc45)CC3)cc(N3CCOCC3)cc2n1 [Compound 17, N-[4-(7-morpholinoquinazolin-5-yl)oxycyclohexyl]furo[3,2-d]pyrimidin-4-amine] |
| < 100 | < 0.001 | – | – | CN1CCN(c2nccc(N[C@H]3CC[C@@H](Oc4cc(N5CCOCC5)cc5ncncc45)CC3)n2)CC1 [Compound 18, 2-(4-methylpiperazin-1-yl)-N-[4-(7-morpholinoquinazolin-5-yl)oxycyclohexyl]pyrimidin-4-amine] |
| < 100 | 0.001 to 0.01 | – | – | CNC(=O)c1ccnc(N[C@H]2CC[C@@H](Oc3cc(N4CCOCC4)cc4nc(C)ncc34)CC2)n1 [Compound 19] |
| ≥ 1000 | 0.001 to 0.01 | – | – | COCC(=O)N[C@H]1CC[C@@H](Oc2cc(N3CCOCC3)cc3ncncc23)CC1 [Compound 20, 2-methoxy-N-((1s,4s)-4-((7-morpholinoquinazolin-5-yl)oxy)cyclohexyl)acetamide] |
| < 100 | < 0.001 | – | – | CCOC(=O)N[C@H]1CC[C@@H](Oc2cc(N3CCOCC3)cc3ncncc23)CC1 [Compound 22, ethyl ((1s,4s)-4-((7-morpholinoquinazolin-5-yl)oxy)cyclohexyl)carbamate] |
| < 100 | < 0.001 | – | – | CC1(C(=O)N[C@H]2CC[C@@H](Oc3cc(N4CCOCC4)cc4ncncc34)CC2)CC1 [Compound 23, 1-methyl-N-((1s,4s)-4-((7-morpholinoquinazolin-5-yl)oxy)cyclohexyl)cyclopropane-1-carboxamide] |
| < 100 | < 0.001 | – | – | Cn1ccc(N[C@H]2CC[C@@H](Oc3cc(N4CCOCC4)cc4ncncc34)CC2)n1 [Compound 24, 1-methyl-N-((1s,4s)-4-((7-morpholinoquinazolin-5-yl)oxy)cyclohexyl)-1H-pyrazol-3-amine] |
| – | – | ≥ 1000 | 0.1 to 1 | COc1ccc(COc2cc(N3CCOCC3)cc3nc[nH]c(=O)c23)cc1 [Compound 51, 5-[(4-methoxyphenyl)methoxy]-7-morpholino-3H-quinazolin-4-one] |
| – | – | ≥ 1000 | 0.001 to 0.01 | COc1ccc(COc2cc(N3CCOCC3)cc3ncncc23)cc1 [Compound 52, 4-[5-[(4-methoxyphenyl)methoxy]quinazolin-7-yl]morpholine] |
| – | – | ≥ 1000 | 0.01 to 0.1 | COc1ccc(COc2cc(N3CCOCC3)cc3ncnc(OC)c23)cc1 [Compound 53, 4-[4-methoxy-5-[(4-methoxyphenyl)methoxy]quinazolin-7-yl]morpholine] |
| – | – | ≥ 1000 | 0.001 to 0.01 | COc1ccc(COc2cc(N3CCOCC3)cc3ncnc(C#N)c23)cc1 [Compound 55, 5-[(4-methoxyphenyl)methoxy]-7-morpholino-quinazoline-4-carbonitrile] |
